PMC4835877, “HM71224, a novel Bruton’s tyrosine kinase inhibitor, suppresses B cell and monocyte activation and ameliorates arthritis in a mouse model: a potential drug for rheumatoid arthritis” (Arthritis Research & Therapy, 2016)

Experiments:
[1] = test system: human plasmacytoid dendritic cells; test: Cytokine production by human PDCs stimulated with CpG ODN or LPS (ELISA); format: cell-based; conditions: CpG ODN (TLR9 agonist), 1 μM, 48 h
Method: Human monocytes were stimulated with heat-inactivated ICs at 37 °C for 30 minutes in the presence of increasing concentrations of HM71224. Human PDCs were stimulated with lipopolysaccharide (LPS) or CpG ODN 2006 (ThermoFisher Scientific) for 48 h in the absence or presence of HM71224 (1 μM). The production of tumor necrosis factor (TNF)-α, interleukin (IL)-1β, and IL-6 was then measured using a commercial ELISA (R&D Systems). […] The levels of the indicated cytokines in the culture supernatant were then measured by ELISA at 5 h post stimulation. […] The levels of the indicated cytokines in the culture supernatant were then measured by ELISA at 48 h post stimulation.*P < 0.05, **P < 0.01, and ***P < 0.001 vs. no treatment. LPS lipopolysaccharide

[2] = test system: phosphorylation of Btk and PLCγ2 in primary human B cells; test: BCR signaling in primary human B cells (immunoblot); format: cell-based; conditions: BCR ligation
Method: Ramos cells or human B cells were pretreated with the indicated concentrations of HM71224 and then stimulated with anti-IgM F(ab’)2 (Southern Biotech, Birmingham, AL, USA) for 10 minutes on ice. Cells were then lysed in RIPA buffer (Sigma-Aldrich), and the proteins were separated by SDS-PAGE (Bio-Rad Laboratories, Hercules, CA, USA), transferred onto polyvinylidene fluoride (PVDF) membranes, and immunoblotted with anti-pBtk Y223 (catalog number 5082; Cell Signaling Technology, Danvers, MA, USA), anti-pPLCγ2 Y759 (catalog number 3874; Cell Signaling Technology), anti-pPLCγ2 Y1217 (Cell Signaling Technology), anti-pERK T202/204 (197G2; Cell Signaling Technology), anti-Btk (C82B8; Cell Signal Technology), anti-PLCγ2 (catalog number 3872; Cell Signal Technology), anti-ERK1/2 (3A7; Cell Signaling Technology), and anti-GAPDH (FL-335; Santa Cruz Biotechnology, Santa Cruz, TX, USA) antibodies.

CD3+ T cells = test: T cell signaling, phospho-flow of CD3/CD28-activated PBMCs; format: cell-based, human; conditions: CD3- and CD28-conjugated beads
Method: For phospho-flow, B cells were activated by crosslinking their BCRs with anti-human IgM antibodies (10 μg/mL; BD Biosciences) for 10 minutes at 37 °C. Cells were then fixed with 2 % paraformaldehyde at 37 °C for 12 minutes, permeabilized, and stained with anti-CD3-FITC (SK7; BD Biosciences), anti-CD20-PerCP-Cy5.5 (H1; BD Biosciences), anti-pBtk (Y223)-Alexa647 (N35-86; BD Biosciences), anti-pPLCγ2 (Y759)-Alexa647 (K86-689.37; BD Biosciences), anti-pSTAT1 (Y701)-Alexa647 (4a; BD Biosciences), anti-pSTAT3 (Y705)-Alexa647 (4/P-STAT3; BD Biosciences), anti-pSTAT5 (Y694)-Alexa647 (47; BD Biosciences), and anti-pERK1/2 (T202/204)-Alexa647 (20A; BD Biosciences) antibodies. The cells were then washed and analyzed on an LSR II flow cytometer (BD Biosciences). Data were analyzed using FlowJo software, version 8.8 (Treestar, Ashland, OR, USA).
Figure S5. Effect of HM71224 on human T cell signaling. […] The expression level of p-STAT1, p-STAT3, p-STAT5, and p-ERK1/2 by CD3+ T cells was then measured by phospho-flow cytometry.

human CD14+ monocytes = test: Cytokine production by IC-stimulated human monocytes (ELISA); format: cell-based; conditions: heat-inactivated ICs, increasing concentrations
[3] = test system: DBA/1 J mice with collagen-induced arthritis; test: Collagen-induced arthritis (CIA) model; format: in vivo, mouse
Method: All animal experimental protocols were approved by the animal care and use committee of the Hanmi Research Center, and performed in accordance with approved guidelines. Male DBA/1 J mice (9 weeks old; n = 7 per group) were immunized with an emulsion of Complete Freund’s Adjuvant and bovine type II collagen (CII) (total volume, 0.07 mL) via intradermal injection at the base of the tail (day 0). Three weeks later, the mice received a booster immunization comprising bovine CII emulsified in Incomplete Freund’s Adjuvant. […] The arthritis score and body weight were measured three times per week for 2 weeks after administration of the drugs (Additional file 1: Figure S1). The arthritis score was determined by grading each paw from 0 to 4 based on erythema, swelling, and flexion of the joint and was expressed as the sum of the scores of all four paws. Serum levels of IL-6 were measured by Luminex analysis in a bead-based immunoassay (EMD Millipore Corporation). Serum levels of anti-CII and total IgG were measured by ELISA (Chondrex, Seattle, WA, USA; Bethyl Laboratories, Montgomery, TX, USA).
Micro-CT of the hind limbs was performed using a Siemens Inveon Micro-CT/PET scanner (Siemens Medical Solutions, Knoxville, TN, USA).
The hind legs of each mouse were fixed with 10 % formalin, decalcified in 5 % formic acid, and embedded in paraffin. Sections were then cut and stained with hematoxylin and eosin (H&E). The bone erosion index was scored from 0 to 4 according to the following criteria: 0 = no erosion, 1 = mild (focal subchondral erosion), 2 = moderate (multiple subchondral erosions), 3 = high (as above and focal erosion of talus), and 4 = maximum (multiple erosions of tarsal and metatarsal bones).
Figure S1. Experiment design of collagen induced arthritis. Untreated DBA/1J mice (n=7) served as healthy controls (Ctrl). DBA/1J mice (n= 56) were immunized Day 0 and day 21. On day 10 after boosting (i.e. day 31), the induction of CIA was evaluated. […] Immunized mice (n=42) were divided into 6 groups (n=7 in each group). […] CIA, collagen induced arthritis.

C=CC(=O)Nc1cccc(Oc2nc(Nc3ccc(N4CCN(C)CC4)cc3)nc3ccoc23)c1 [HM71224]
CpG-mediated production of TNF-α and IL-6 [1]: inhibited CpG-mediated cytokine production
Phosphorylation of Btk and PLCγ2 [2]: effectively inhibited
T cell receptor signaling (p-STAT1, p-STAT3 and p-STAT5) (CD3+ T cells): not affected
p-ERK1/2 in CD3+ T cells (CD3+ T cells): inhibited
Production of TNF-α, IL-1β, and IL-6 (human CD14+ monocytes): inhibited in a dose-dependent manner
Levels of circulating anti-collagen antibodies vs untreated group ([3]; CIA mice): significantly lower
Serum IL-6 levels vs untreated group ([3]; CIA mice): significantly lower
Total IgG level ([3]; CIA mice): tended to be lower
Erosive bone changes and bone loss ([3]; CIA mice, H&E section): markedly reduced erosive bone changes and prevented bone loss
Weight loss ([3]; dose of 3 mg/kg or higher): prevented weight loss
AS, arthritis score ([3]; oral 1mg/kg once a day, D0): 1.1±0.7
Wt, weight ([3]; oral 1mg/kg once a day, D0): 22.7±0.5 gram
AS, arthritis score ([3]; oral 1mg/kg once a day, D1): 1.1±0.7
Wt, weight ([3]; oral 1mg/kg once a day, D1): 22.5±0.5 gram
AS, arthritis score ([3]; oral 1mg/kg once a day, D4): 1.9±0.9
Wt, weight ([3]; oral 1mg/kg once a day, D4): 22.2±0.6 gram
AS, arthritis score ([3]; oral 1mg/kg once a day, D6): 2.1±1.1
Wt, weight ([3]; oral 1mg/kg once a day, D6): 21.9±0.5 gram
AS, arthritis score ([3]; oral 1mg/kg once a day, D8): 2.9±1.1
Wt, weight ([3]; oral 1mg/kg once a day, D8): 22.1±0.5 gram
AS, arthritis score ([3]; oral 1mg/kg once a day, D12): 5.0±1.0
Wt, weight ([3]; oral 1mg/kg once a day, D12): 21.6±0.5 gram
AS, arthritis score ([3]; oral 1mg/kg once a day, D13): 6.6±0.7
Wt, weight ([3]; oral 1mg/kg once a day, D13): 21.4±0.4 gram
AS, arthritis score ([3]; oral 1mg/kg once a day, D15): 6.6±0.9
Wt, weight ([3]; oral 1mg/kg once a day, D15): 21.2±0.3 gram
AS, arthritis score ([3]; oral 3mg/kg once a day, D0): 1.1±0.3
Wt, weight ([3]; oral 3mg/kg once a day, D0): 22.7±0.4 gram
AS, arthritis score ([3]; oral 3mg/kg once a day, D1): 1.3±0.7
Wt, weight ([3]; oral 3mg/kg once a day, D1): 22.3±0.5 gram
AS, arthritis score ([3]; oral 3mg/kg once a day, D4): 1.9±0.6
Wt, weight ([3]; oral 3mg/kg once a day, D4): 22.2±0.4 gram
AS, arthritis score ([3]; oral 3mg/kg once a day, D6): 1.9±0.6
Wt, weight ([3]; oral 3mg/kg once a day, D6): 22.4±0.4 gram
AS, arthritis score ([3]; oral 3mg/kg once a day, D8): 2.0±0.7
Wt, weight ([3]; oral 3mg/kg once a day, D8): 22.5±0.4 gram
AS, arthritis score ([3]; oral 3mg/kg once a day, D12): 3.1±0.9
Wt, weight ([3]; oral 3mg/kg once a day, D12): 22.6±0.4 gram
AS, arthritis score ([3]; oral 3mg/kg once a day, D13): 3.4±1.2
Wt, weight ([3]; oral 3mg/kg once a day, D13): 22.6±0.4 gram
AS, arthritis score ([3]; oral 3mg/kg once a day, D15): 3.4±1.4
Wt, weight ([3]; oral 3mg/kg once a day, D15): 22.5±0.4 gram
AS, arthritis score ([3]; oral 10mg/kg once a day, D0): 1.1±0.6
Wt, weight ([3]; oral 10mg/kg once a day, D0): 23.0±0.2 gram
AS, arthritis score ([3]; oral 10mg/kg once a day, D1): 0.9±0.3
Wt, weight ([3]; oral 10mg/kg once a day, D1): 22.8±0.3 gram
AS, arthritis score ([3]; oral 10mg/kg once a day, D4): 0.4±0.2
Wt, weight ([3]; oral 10mg/kg once a day, D4): 23.2±0.3 gram
AS, arthritis score ([3]; oral 10mg/kg once a day, D6): 0.6±0.4
Wt, weight ([3]; oral 10mg/kg once a day, D6): 23.0±0.3 gram
AS, arthritis score ([3]; oral 10mg/kg once a day, D8): 0.6±0.3
Wt, weight ([3]; oral 10mg/kg once a day, D8): 23.2±0.3 gram
AS, arthritis score ([3]; oral 10mg/kg once a day, D12): 1.0±0.4
Wt, weight ([3]; oral 10mg/kg once a day, D12): 23.5±0.3 gram
AS, arthritis score ([3]; oral 10mg/kg once a day, D13): 0.7±0.4
Wt, weight ([3]; oral 10mg/kg once a day, D13): 23.8±0.3 gram
AS, arthritis score ([3]; oral 10mg/kg once a day, D15): 0.7±0.4
Wt, weight ([3]; oral 10mg/kg once a day, D15): 23.9±0.3 gram
AS, arthritis score ([3]; oral 30mg/kg once a day, D0): 1.1±0.5
Wt, weight ([3]; oral 30mg/kg once a day, D0): 22.6±0.5 gram
AS, arthritis score ([3]; oral 30mg/kg once a day, D1): 0.9±0.3
Wt, weight ([3]; oral 30mg/kg once a day, D1): 22.0±0.5 gram
AS, arthritis score ([3]; oral 30mg/kg once a day, D4): 0.3±0.2
Wt, weight ([3]; oral 30mg/kg once a day, D4): 22.1±0.4 gram
AS, arthritis score ([3]; oral 30mg/kg once a day, D6): 0.3±0.2
Wt, weight ([3]; oral 30mg/kg once a day, D6): 22.1±0.4 gram
AS, arthritis score ([3]; oral 30mg/kg once a day, D8): 0.4±0.2
Wt, weight ([3]; oral 30mg/kg once a day, D8): 22.4±0.4 gram
AS, arthritis score ([3]; oral 30mg/kg once a day, D12): 0.4±0.2
Wt, weight ([3]; oral 30mg/kg once a day, D12): 22.5±0.4 gram
AS, arthritis score ([3]; oral 30mg/kg once a day, D13): 0.4±0.3
Wt, weight ([3]; oral 30mg/kg once a day, D13): 22.9±0.5 gram
AS, arthritis score ([3]; oral 30mg/kg once a day, D15): 0.3±0.2
Wt, weight ([3]; oral 30mg/kg once a day, D15): 22.8±0.4 gram
Arthritis score vs untreated CIA mice ([3]; oral once a day for 2 weeks, P < 0.05 at 10 mg/kg, P < 0.01 at 30 mg/kg): lower arthritis scores than untreated CIA mice
